Article PMC6908736, “Toxic Tau Oligomers Modulated by Novel Curcumin Derivatives” (Scientific Reports, 2019)
Where two headings read alike, the source gives them in different places.

Tests used:
[1] = tested on: human neuroblastoma SH-SY5Y cell line; test: MTS cytotoxicity of curcumin derivatives (dose-response); type: cell-based; parameters: LogIC50 (cell viability): unit not given here; details: for IC50: Homo sapiens; for LogIC50 (cell viability): n = 3
Description: Six compounds were selected due to their higher activity in modulating toxic TauO and subjected to additional in vitro testing to validate their effects on TauO (Fig. 2B). […] Compounds CL3,8 were obtained through a double aldol condensation on the diacetyl of the appropriate aromatic aldehyde 1[58]. Similarly, HemiC9 was obtained by means of Claisen-Schmidt Aldol condensation of acetone under basic conditions (Fig. 2C)[59]. Heterocyclic derivative CH8 was obtained in a two-step procedure from the corresponding cinnamic acid derivative 2 (Fig. 2D)[60]. […] This method allows the obtainment of target products avoiding the use of protecting groups. One of the criteria used to select these small molecules was evaluating their toxicity profile. The cytotoxicity of each curcumin derivative was examined by exposing the cultured human neuroblastoma SH-SY5Y cell line to a continuous range of small molecule concentrations (0–800 μM) and monitoring cell survival after 24 hours of treatment by an MTS assay. […] Human neuroblastoma SH-SY5Y cells (ATCC CRL-2266) were maintained in DMEM and grown to confluence in 96-well plates as previously described. […] The dose-response curve was used to calculate the concentration of the compound required for 50% inhibition of cell viability (IC50). Cell viability was corrected by the vehicle background. All measurements were performed in triplicate. The cytotoxic effect was determined using MTS assay (G3582, Promega) for assessing cell viability following the manufacturers’ instructions. Optical density (OD) was measured at 490 nm with POLARstar OMEGA plate reader (BMG Labtechnologies). Cell viability was calculated as the percentage of the OD value of treated cells compared to untreated controls, according to the following equation: Viability = (OD SAMPLE/OD CONTROL) × 100%.

[2] = tested on: SH-SY5Y cells exposed to TauO; test: MTS assay of TauO-induced toxicity in SH-SY5Y; type: cell-based, human; details: 2 µM TauO, curcumin final concentration 10 μM, 24 hours
Experimental: Human neuroblastoma SH-SY5Y cells (ATCC CRL-2266) were maintained in DMEM and grown to confluence in 96-well plates as previously described. […] The dose-response curve was used to calculate the concentration of the compound required for 50% inhibition of cell viability (IC50).
Cell viability was corrected by the vehicle background. All measurements were performed in triplicate. The cytotoxic effect was determined using MTS assay (G3582, Promega) for assessing cell viability following the manufacturers’ instructions. Optical density (OD) was measured at 490 nm with POLARstar OMEGA plate reader (BMG Labtechnologies). Cell viability was calculated as the percentage of the OD value of treated cells compared to untreated controls, according to the following equation: Viability = (OD SAMPLE/OD CONTROL) × 100%.

[3] = biological target: T1, preformed recombinant tau oligomers (TauO) (Homo sapiens, UniProt P10636); test: Direct ELISA, dot blot and filter trap of tau oligomers (T22, TOMA1, Tau 5); type: biochemical; details: curcumin 1:5 and 1:10 molar ratio, vs untreated TauO
T1 construct: made in house
T1 sequence (P10636 1-441 isoform P10636-8): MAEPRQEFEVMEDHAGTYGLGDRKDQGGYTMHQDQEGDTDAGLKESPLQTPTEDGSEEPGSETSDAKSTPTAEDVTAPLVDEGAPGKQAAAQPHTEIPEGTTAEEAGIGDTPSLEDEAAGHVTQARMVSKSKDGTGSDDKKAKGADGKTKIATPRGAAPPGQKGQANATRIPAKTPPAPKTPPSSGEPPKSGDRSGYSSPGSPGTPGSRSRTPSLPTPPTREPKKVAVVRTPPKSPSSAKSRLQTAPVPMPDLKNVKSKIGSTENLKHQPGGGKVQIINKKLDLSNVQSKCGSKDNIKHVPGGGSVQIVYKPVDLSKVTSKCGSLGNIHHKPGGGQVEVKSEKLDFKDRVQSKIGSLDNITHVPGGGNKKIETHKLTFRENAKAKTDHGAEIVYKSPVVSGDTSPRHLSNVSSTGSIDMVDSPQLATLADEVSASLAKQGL
Experimental: (§1) A volume of 100 μL of tau oligomers (1 µg/μL) was incubated with curcumin (1:5 and 1:10 molar ratio) and curcumin derivatives (1:5 molar ratio). Compounds were dissolved in EtOH 75%/DMSO (5:1) at a final concentration of 5 mM and diluted in 1X PBS or ddH2O for incubation or toxicity assay (final concentration 5 μM). Tau oligomers in the presence of the small molecules and controls were incubated on an orbital shaker, without stirring, for 16 hours under oligomerization conditions as previously described.
Dot blot assay to detect tau oligomers in the absence or presence of small molecules was performed as previously described. Briefly, 1.5 μl of each end-product reaction was applied onto nitrocellulose membranes and then blocked with 10% nonfat milk in TBS-T overnight at 4 °C. The next day, membranes were probed with the oligomer-specific tau antibodies, T22 (1:250), TOMA1(1:200) and total tau antibody, Tau 5, (1:10000) diluted in 5% nonfat milk for 1 hour at RT. […]
ELISA assay was conducted as previously described. […] Plates were washed three times with TBS-T and developed with 3,3,5,5-tetramethylbenzidine (TMB + Substrate- Chromogen, S1599, Dako) The reaction was stopped using 100 μL of 1 M HCl and absorbance was read at 450 nm using POLARstar OMEGA plate reader. […]

[4] = biological target: T1, preformed recombinant tau oligomers (TauO); test: Western blot of tau oligomers with and without compounds; type: biochemical; details: curcumin 1:5 and 1:10 molar ratio
Experimental: The tau pellet was treated with 8 M urea followed by overnight dialysis against 1X phosphate-buffered saline (PBS) pH 7.4. Tau concentration was measured using bicinchoninic acid protein assay (Pierce BCA Protein Assay Kit, 23225, Thermo Fisher Scientific) and normalized to 1 mg/mL by adding 1X PBS. Aliquots of tau monomer in PBS were stored at -20 °C. Each 300 µL of tau stock (0.3 mg) was added to 700 µL of 1X PBS and incubated for 1 hour on an orbital shaker at room temperature. After shaking, the resulting tau oligomers were purified by fast protein liquid chromatography (FPLC, Superdex 200 Increase 10/300 column, Amersham Biosciences).
as §1
An amount of 3 µg of each sample were resolved on a pre-cast NuPAGE 4–12% Bis-Tris Gels for SDS-PAGE (NP0335BOX, Invitrogen) and transferred to nitrocellulose membranes. […]

[5] = MTS, 0–800 μM, 24 hours, n = 3, read-out: IC50 (cell viability)

| SMILES | IC50 [1, 5] [µM] | LogIC50 (cell viability) ([1]; MTS, 0–800 μM, 24 hours) | also measured |
| --- | --- | --- | --- |
| CN(C)c1ccc(/C=C/c2nnc(/C=C/c3ccc(N(C)C)cc3)o2)cc1 [CH8] | 110 | 2.042 | – |
| O=C(/C=C/c1ccc(F)cc1)C(=O)/C=C/c1ccc(F)cc1 [CL3] | 56.1 | 1.749 | – |
| O=C(/C=C/c1ccccc1Cl)C(=O)/C=C/c1ccccc1Cl [CL8] | 54.5 | 1.737 | – |
| O=C(/C=C/c1ccc(Cl)cc1)COC(=O)/C=C/c1ccc(Cl)cc1 [Cal7] | – | 2.281 | IC50 ([1]; 24 h, read-out: IC50 (cell viability)): 191 µM |
| CC(=O)/C=C/c1ccc(C)cc1 [HemiC9] | 124 | – | – |
| COc1cc(/C=C/C(=O)CC(=O)/C=C/c2ccc(O)c(OC)c2)ccc1O [curcumin] | – | – | cell viability after TauO in the presence of compound [2]: rescued cells from TauO-induced toxicity; oligomer level, T22 immunoreactivity (direct ELISA and dot blot) [3]: significant decrease in oligomers; aggregation state of TauO by Western blot (T22, Tau 5, Tau 13) [4]: promoting the formation of higher molecular weight tau aggregates |
